Measured values from publication PMC5240995, “Lysine Decarboxylase with an Enhanced Affinity for Pyridoxal 5-Phosphate by Disulfide Bond-Mediated Spatial Reconstitution” (PLoS ONE, 2017).
pKd: −log10 of the molar value.

Molecular target: T1, SrLDC (Pseudoselenomonas ruminantium, UniProt O50657, A225C/T302C)
T1 construct: gene ldc
Assay: isothermal titration calorimetry
Assay type: binding

T1 sequence (O50657 whole entry A225C/T302C): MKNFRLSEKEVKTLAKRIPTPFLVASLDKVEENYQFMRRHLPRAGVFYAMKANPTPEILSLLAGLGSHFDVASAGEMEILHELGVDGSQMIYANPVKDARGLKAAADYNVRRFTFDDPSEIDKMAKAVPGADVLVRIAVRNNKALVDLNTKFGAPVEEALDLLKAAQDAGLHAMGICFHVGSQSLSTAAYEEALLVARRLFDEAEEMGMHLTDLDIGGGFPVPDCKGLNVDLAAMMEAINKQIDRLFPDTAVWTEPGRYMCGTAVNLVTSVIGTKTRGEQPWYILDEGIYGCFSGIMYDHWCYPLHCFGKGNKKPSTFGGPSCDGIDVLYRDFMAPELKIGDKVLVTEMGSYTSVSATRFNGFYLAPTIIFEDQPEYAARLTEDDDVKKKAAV

pKd: 4.68
SMILES: Cc1ncc(COP(=O)(O)O)c(C=O)c1O [pyridoxal 5-phosphate]
